Test results published in PMC12865225 (Clinical and Translational Science, 2026).
pIC50: −log10 of the molar value.

Target: T1, OATP1B1 (Homo sapiens, UniProt Q9Y6L6)
T1 construct: expressed in transfected cells; host or cells: HEK293 (recombinant baculovirus-mediated transduction)
T1 sequence (Q9Y6L6 1-691): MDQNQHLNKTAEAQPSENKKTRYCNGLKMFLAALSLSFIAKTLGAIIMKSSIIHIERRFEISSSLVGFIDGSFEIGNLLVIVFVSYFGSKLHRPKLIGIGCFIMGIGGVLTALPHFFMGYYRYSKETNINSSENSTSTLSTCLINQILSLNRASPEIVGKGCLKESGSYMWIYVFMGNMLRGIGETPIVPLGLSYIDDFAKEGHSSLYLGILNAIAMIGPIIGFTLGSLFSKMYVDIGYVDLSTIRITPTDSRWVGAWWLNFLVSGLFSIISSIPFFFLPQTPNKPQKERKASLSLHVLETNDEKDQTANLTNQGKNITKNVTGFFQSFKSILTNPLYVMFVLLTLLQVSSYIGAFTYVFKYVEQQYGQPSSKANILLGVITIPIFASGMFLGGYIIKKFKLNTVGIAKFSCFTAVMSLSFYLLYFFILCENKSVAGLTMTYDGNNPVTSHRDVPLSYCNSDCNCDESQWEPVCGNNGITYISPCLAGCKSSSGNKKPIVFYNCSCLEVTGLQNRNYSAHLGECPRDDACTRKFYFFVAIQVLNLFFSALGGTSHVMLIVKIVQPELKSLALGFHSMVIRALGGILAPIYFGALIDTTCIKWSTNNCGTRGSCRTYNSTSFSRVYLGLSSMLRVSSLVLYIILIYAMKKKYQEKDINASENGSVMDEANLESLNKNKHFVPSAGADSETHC
Test: OATP1B1 inhibition with fluorescent substrate 2′,7′-dichlorofluorescein in HEK293 cells
Assay type: cell-based
Settings: 1 µM 2′,7′-dichlorofluorescein, 30 min preincubation
Method: 8- (2- [Fluoresceinyl]aminoethylthio)adenosine- 3', 5'- cyclic monophosphate (8-Fluo-cAMP) was acquired from Biolog Life Science Institute (Bremen, Germany), 4′,5′-dibromofluorescein was acquired from Sigma-Aldrich (St. Louis, MO, USA) and 2′,7′-dichlorofluorescein was acquired from Santa Cruz Biotechnology (Dallas, TX, USA).
Inhibition studies with fluorescent substrates in OATP transduced HEK293 cells The concentrations of fluorescent probe substrates were 1 µM 2′,7′-dichlorofluorescein for OATP1B1, 2.5 µM 8-Fluo-cAMP for OATP1B3 and 1 µM 4′,5′-dibromofluorescein for OATP2B1, and these concentrations were selected to be within or below of previously reported […]
reported linear ranges of transport for these substrate-transporter combinations.1,2,4 8-Fluo-cAMP was dissolved in ultrapure water, while dimethyl sulfoxide (DMSO) was used for all other compounds. […] For the quantification of fluorescent substrates, cells were lysed with 120 µl of lysis solution (1% Triton X-100, 5 mM EDTA, 150 mM sodium chloride and 150 mM TRIC-hydrochloride and adjusted to pH 8 with sodium hydroxide) for 30 min at 300 RPM shaking before transferring 80 µl of samples to a transparent 96-well plate containing 20 µl of 0.5 M sodium hydroxide. […] The plates were measured with a fluorescent plate reader (Varioskan LUX from ThermoFisher Scientific). […]

`Cc1onc(-c2c(F)cccc2Cl)c1C(=O)N[C@@H]1C(=O)N2[C@@H]1SC(C)(C)[C@@H]2C(=O)O` [Flucloxacillin] was tested, and the pIC50 (5 min) was 5.03.
With `Cc1onc(-c2c(Cl)cccc2Cl)c1C(=O)N[C@@H]1C(=O)N2[C@@H]1SC(C)(C)[C@@H]2C(=O)O` [Dicloxacillin] the IC50 at 5 min (human, HEK293 cells transduced to express OATP1B1, pH 7.4, probe 2′,7′-dichlorofluorescein 1 µM) was 3.59 µM.
